Target: T1, human IGF-IR (Homo sapiens, UniProt P08069)
T1 construct: complete human IGF-IR cDNA: GenBank Acc; No. NM_000875; expressed in transfected cells; host or cells: NIH-3T3 mouse fibroblasts
Experiment: cellular "Capture ELISA": IGF-I induced IGF-IR autophosphorylation
Type: cell-based
Conditions: NIH-3T3 mouse fibroblasts transfected with human IGF-IR cDNA, 90 min compound, 10 ng/ml IGF-I for 10 min
Experimental: In this assay the activity of the compounds of the invention against Insulin-like growth factor I (IGF-I) induced autophosphorylation of the IGF-IGF-IR is determined. The assay is conducted as follows:
The cells which overexpress human IGF-IGF-IR are cultured in Dulbecco's minimal essential (DMEM) medium, containing 10% Fetal Calf Serum (FCS). […] On day 3 the medium is discarded and the cells are incubated for 24 h in minimal medium (DMEM, containing 0.5% FCS). […] The cells are incubated for 90 min in the presence of a compound of formula I. Thereafter the cells are stimulated with 50 μl IGF-I (final concentration of IGF-I in the well=10 ng/ml; IGF-I is obtained from Sigma; Product Code: I3769) and incubated for 10 min at 37° C.
The medium is discarded and the cells are washed twice with PBS/O (=Phosphate-Buffered Saline without CaCl2) and lysed for 15 min on ice with 50 μl/well RIPA-buffer [50 mM Tris.HCl, pH=7.2, 120 mM NaCl, 1 mM EDTA, 6 mM EGTA, 1% NP-40, 20 mM NaF, 1 mM benzamidine, 15 mM sodium pyrophosphate, 1 mM Phenyl methyl sulphonyl fluoride (PMSF) and 0.5 mM Na3VO4] and shaken for 10 min using a 96-well plate shaker (=cellular extracts).
The plates are washed twice with 0.05% (v/v) Tween-20 in Phosphate-Buffered Saline (PBS) and once with nanopure H2O. […] After blocking, the plates are washed once with nanopure H2O.
After incubating the extracts and the secondary antibody for 2 h at 4° C., the extracts are discarded, the plates are washed twice with 0.05% (v/v) Tween-20 in PBS and once with nanopure water.
90 μl/well AP substrate (CDP-Star; obtained from Tropix; Cat. No.: MS100RY) are then added and the plates are incubated for 45 min at RT in the dark, followed by measuring AP activity in a Packard Top Count Microplate Scintillation Counter. The IC50 values for the compounds of formula I are calculated via linear regression analysis using the GraphPad In-stat program (GraphPad Software, USA).
Test for activity against IGF-I induced IGF-IR autophosphorylation using the cellular “Capture ELISA” test
The cellular “Capture ELISA” test is carried out as described above.

T1 sequence (P08069 31-1367): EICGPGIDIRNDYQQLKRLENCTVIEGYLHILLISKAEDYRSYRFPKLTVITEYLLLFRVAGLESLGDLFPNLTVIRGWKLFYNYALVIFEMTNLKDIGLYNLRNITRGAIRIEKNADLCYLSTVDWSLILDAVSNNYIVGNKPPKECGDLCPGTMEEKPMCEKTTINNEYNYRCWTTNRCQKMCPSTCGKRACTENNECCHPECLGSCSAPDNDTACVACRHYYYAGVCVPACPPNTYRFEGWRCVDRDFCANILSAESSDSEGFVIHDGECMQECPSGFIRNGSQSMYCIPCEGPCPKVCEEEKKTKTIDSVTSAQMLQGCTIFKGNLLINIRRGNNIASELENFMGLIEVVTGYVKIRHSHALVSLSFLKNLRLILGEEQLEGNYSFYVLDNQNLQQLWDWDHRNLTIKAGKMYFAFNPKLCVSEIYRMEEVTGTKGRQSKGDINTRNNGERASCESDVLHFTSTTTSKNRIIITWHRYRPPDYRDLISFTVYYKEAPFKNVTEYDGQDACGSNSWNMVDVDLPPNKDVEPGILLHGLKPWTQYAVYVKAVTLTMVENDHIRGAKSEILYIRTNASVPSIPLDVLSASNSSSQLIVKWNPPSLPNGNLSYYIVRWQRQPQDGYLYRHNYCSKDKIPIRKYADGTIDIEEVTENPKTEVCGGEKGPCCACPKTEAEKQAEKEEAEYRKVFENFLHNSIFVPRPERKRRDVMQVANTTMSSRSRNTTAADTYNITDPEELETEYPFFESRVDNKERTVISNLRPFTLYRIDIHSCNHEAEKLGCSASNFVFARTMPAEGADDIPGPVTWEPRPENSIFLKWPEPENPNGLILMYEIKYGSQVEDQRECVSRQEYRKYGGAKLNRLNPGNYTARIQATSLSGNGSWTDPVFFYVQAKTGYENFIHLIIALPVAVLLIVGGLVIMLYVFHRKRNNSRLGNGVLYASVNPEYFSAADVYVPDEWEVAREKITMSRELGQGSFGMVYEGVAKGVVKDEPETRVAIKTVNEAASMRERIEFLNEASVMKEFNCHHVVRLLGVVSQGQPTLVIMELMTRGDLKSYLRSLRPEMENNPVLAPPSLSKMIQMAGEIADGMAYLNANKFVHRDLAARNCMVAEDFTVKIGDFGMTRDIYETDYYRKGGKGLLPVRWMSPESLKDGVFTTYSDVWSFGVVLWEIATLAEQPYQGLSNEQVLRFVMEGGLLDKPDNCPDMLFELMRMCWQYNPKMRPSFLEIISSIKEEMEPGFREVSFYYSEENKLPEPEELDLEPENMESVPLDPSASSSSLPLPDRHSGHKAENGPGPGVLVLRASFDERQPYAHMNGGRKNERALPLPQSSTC

Structure (SMILES)	IC50 [nM]
Nc1ncnc2c1c(-c1cccc(OCc3ccccc3)c1)cn2[C@H]1C[C@@H](CNC(=O)CN2CCCCC2)C1 [Example 57, cis-N-{3-[4-Amino-5-(3-benzyloxy-phenyl)-pyrrolo[2,3-d]pyrimidin-7-yl]-cyclobutylmethyl}-2-piperidin-1-yl-acetamide]	18
NC(=O)[C@@H]1CCCN1C[C@H]1C[C@H](n2cc(-c3cccc(OCc4ccccc4)c3)c3c(N)ncnc32)C1 [Example 75, trans-(S)1-{3-[4-Amino-5-(3-benzyloxy-phenyl)-pyrrolo[2,3-d]pyrimidin-7-yl]-cyclobutylmethyl}-pyrrolidine-2-carboxylic acid amide]	50
Nc1ncnc2c1c(-c1cccc(OCc3ccccc3)c1)cn2[C@H]1C[C@@H](CN2CCC(O)CC2)C1 [Example 77, cis-1-{3-[4-Amino-5-(3-benzyloxy-phenyl)-pyrrolo[2,3-d]pyrimidin-7-yl]-cyclobutylmethyl}-piperidin-4-ol]	50
Nc1ncnc2c1c(-c1cccc(OCc3ccccc3)c1)cn2[C@H]1C[C@@H](CN2CCSCC2)C1 [Example 81, cis-5-(3-Benzyloxy-phenyl)-7-(3-thiomorpholin-4-ylmethyl-cyclobutyl)-7H-pyrrolo[2,3-d]pyrimidin-4-ylamine]	80
NC(=O)[C@H]1CCCN1C[C@H]1C[C@@H](n2cc(-c3cccc(OCc4ccccc4)c3)c3c(N)ncnc32)C1 [Example 83, cis-(R)-1-{3-[4-Amino-5-(3-benzyloxy-phenyl)-pyrrolo[2,3-d]pyrimidin-7-yl]-cyclobutylmethyl}-pyrrolidine-2-carboxylic acid amide]	52
Nc1ncnc2c1c(-c1cccc(OCc3ccccc3)c1)cn2[C@H]1C[C@H](CNC(=O)N2CCCCC2)C1 [Example 90, trans-Piperidine-1-carboxylic acid {3-[4-amino-5-(3-benzyloxy-phenyl)-pyrrolo[2,3-d]pyrimidin-7-yl]-cyclobutylmethyl}-amide]	90
CCN(CC)CCOC(=O)NC[C@H]1C[C@H](n2cc(-c3cccc(OCc4ccccc4)c3)c3c(N)ncnc32)C1 [Example 95, trans-{3-[4-amino-5-(3-benzyloxy-phenyl)pyrrolo[2,3-d]pyrimidin-7-yl]-cyclobutylmethyl}-carbamic acid 2-diethylamino-ethyl ester]	80
Nc1ncnc2c1c(-c1cccc(OCc3ccccc3)c1)cn2[C@H]1C[C@H](CNC(=O)OCCN2CCOCC2)C1 [Example 96, trans-{3-[4-Amino-5-(3-benzyloxy-phenyl)-pyrrolo[2,3-d]pyrimidin-7-yl]-cyclobutylmethyl}-carbamic acid 2-morpholin-4-yl-ethyl ester]	50
CN(C)CCOC(=O)NC[C@H]1C[C@H](n2cc(-c3cccc(OCc4ccccc4)c3)c3c(N)ncnc32)C1 [Example 98, trans-{3-[4-Amino-5-(3-benzyloxy-phenyl)-pyrrolo[2,3-d]pyrimidin-7-yl]-cyclobutylmethyl}-carbamic acid 2-dimethylamino-ethyl ester]	40
Cc1c(-c2cccc(OCc3ccccc3)c2)c2c(N)ncnc2n1[C@H]1C[C@H](CN2CCC(O)CC2)C1 [Example 109, trans-1-{3-[4-Amino-5-(3-benzyloxy-phenyl)-6-methyl-pyrrolo[2,3-d]pyrimidin-7-yl]-cyclobutylmethyl}-piperidin-4-ol]	150
Cc1c(-c2cccc(OCc3ccccc3)c2)c2c(N)ncnc2n1[C@H]1C[C@H](CN2CCC2)C1 [Example 110, trans-7-(3-Azetidin-1-ylmethyl-cyclobutyl)-5-(3-benzyloxy-phenyl)-6-methyl-7-H-pyrrolo[2,3-d]pyrimidin-4-ylamine]	140
Cc1c(-c2cccc(OCc3ccccc3)c2)c2c(N)ncnc2n1[C@H]1C[C@H](CN2CCC[C@@H]2CO)C1 [Example 112, trans-((R)-1-{3-[4-Amino-5-(3-benzyloxy-phenyl)-6-methyl-pyrrolo[2,3-d]pyrimidin-7-yl]-cyclobutylmethyl}-pyrrolidin-2-yl)-methanol]	90
Cc1c(-c2cccc(OCc3ccccc3)c2)c2c(N)ncnc2n1[C@H]1C[C@@H](CN2CCN(C)CC2)C1 [Example 117, cis-5-(3-Benzyloxy-phenyl)-6-methyl-7-[3-(4-methyl-piperazin-1-ylmethyl)-cyclobutyl]-7H-pyrrolo[2,3-d]pyrimidin-4-ylamine]	130

Now from value to compound:

IC50 [nM]	Structure (SMILES)
62	NC[C@H]1C[C@@H](n2cc(-c3cccc(OCc4ccccc4)c3)c3c(N)ncnc32)C1 [Example 1, cis-7-(3-aminomethyl-cyclobutyl)-5-(3-benzyloxy-phenyl)-7H-pyrrolo[2,3-d]pyrimidin-4-ylamine]
30	NC[C@H]1C[C@H](n2cc(-c3cccc(OCc4ccccc4)c3)c3c(N)ncnc32)C1 [Example 2, trans-7-(3-aminomethyl-cyclobutyl)-5-(3-benzyloxy-phenyl)-7H-pyrrolo[2,3-d]pyrimidin-4-ylamine]
42	CNC[C@H]1C[C@@H](n2cc(-c3cccc(OCc4ccccc4)c3)c3c(N)ncnc32)C1 [Example 9, cis-5-(3-Benzyloxy-phenyl)-7-(3-methylaminomethyl-cyclobutyl)-7H-pyrrolo[2,3-d]pyrimidin-4-ylamine]
70	CNC[C@H]1C[C@H](n2cc(-c3cccc(OCc4ccccc4)c3)c3c(N)ncnc32)C1 [Example 10, trans-5-(3-Benzyloxy-phenyl)-7-(3-methylaminomethyl-cyclobutyl)-7H-pyrrolo[2,3-d]pyrimidin-4-ylamine]
30	CS(=O)(=O)NC[C@H]1C[C@@H](n2cc(-c3cccc(OCc4ccccc4)c3)c3c(N)ncnc32)C1 [Example 14, cis-N-{3-[4-Amino-5-(3-benzyloxy-phenyl)-pyrrolo[2,3-d]pyrimidin-7-yl]-cyclobutylmethyl}-methanesulfonamide]
80	COC(=O)NC[C@H]1C[C@H](n2cc(-c3cccc(OCc4ccccc4)c3)c3c(N)ncnc32)C1 [Example 22, trans-{3-[4-amino-5-(3-benzyloxy-phenyl)-pyrrolo[2,3-d]pyrimidin-7-yl]-cyclobutylmethyl}-carbamic acid methyl ester]
31	COC(=O)NC[C@H]1C[C@@H](n2cc(-c3cccc(OCc4ccccc4)c3)c3c(N)ncnc32)C1 [Example 23, cis-{3-[4-Amino-5-(3-benzyloxy-phenyl)-pyrrolo[2,3-d]pyrimidin-7-yl]-cyclobutylmethyl}-carbamic acid methyl ester]
95	COCCOC(=O)NC[C@H]1C[C@H](n2cc(-c3cccc(OCc4ccccc4)c3)c3c(N)ncnc32)C1 [Example 24, trans-{3-[4-Amino-5-(3-benzyloxy-phenyl)-pyrrolo[2,3-d]pyrimidin-7-yl]-cyclobutylmethyl}-carbamic acid 2-methoxy-ethyl ester]
55	CCNC(=O)NC[C@H]1C[C@H](n2cc(-c3cccc(OCc4ccccc4)c3)c3c(N)ncnc32)C1 [Example 26, trans-1-{3-[4-amino-5-(3-benzyloxy-phenyl)-pyrrolo[2,3-d]pyrimidin-7-yl]-cyclobutylmethyl}-3-ethyl-urea]
50	CCNC(=O)NC[C@H]1C[C@@H](n2cc(-c3cccc(OCc4ccccc4)c3)c3c(N)ncnc32)C1 [Example 27, cis-{3-[4-Amino-5-(3-benzyloxy-phenyl)pyrrolo[2,3-d]pyrimidin-7-yl]-cyclobutylmethyl}-3-ethyl-urea]
50	CCCNC(=O)NC[C@H]1C[C@H](n2cc(-c3cccc(OCc4ccccc4)c3)c3c(N)ncnc32)C1 [Example 28, trans-1-{3-[4-Amino-5-(3-benzyloxy-phenyl)-pyrrolo[2,3-d]pyrimidin-7-yl]-cyclobutylmethyl}-3-propyl-urea]
30	CC(C)NC(=O)NC[C@H]1C[C@@H](n2cc(-c3cccc(OCc4ccccc4)c3)c3c(N)ncnc32)C1 [Example 31, cis-1-{3-[4-Amino-5-(3-benzyloxy-phenyl)-pyrrolo[2,3-d]pyrimidin-7-yl]-cyclobutylmethyl}-3-isopropyl-urea]
40	NC(=O)NC[C@H]1C[C@@H](n2cc(-c3cccc(OCc4ccccc4)c3)c3c(N)ncnc32)C1 [Example 49, cis-{3-[4-Amino-5-(3-benzyloxy-phenyl)-pyrrolo[2,3-d]pyrimidin-7-yl]-cyclobutylmethyl}-urea]
57	CNC(=O)NC[C@H]1C[C@@H](n2cc(-c3cccc(OCc4ccccc4)c3)c3c(N)ncnc32)C1 [Example 88, cis-1-{3-[4-Amino-5-(3-benzyloxy-phenyl)-pyrrolo[2,3-d]pyrimidin-7-yl]-cyclobutylmethyl}-3-methyl-urea]
